Experimental data reported in ChEMBL document CHEMBL1201862, “PubChem BioAssay data set” (2004).
Active and inactive are the calls of the source.

Columns and labels:
Streptococcus = experiment: GAS UMAA2166 growth inhibition – luminescence, BacTiterGlo, counter-screen for streptokinase expression inhibitor project, dose response (AID 1915); format: functional, organism-based;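 note: potency for reduction of bacterial viability or growth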
[1] = target: T1, Carboxy-terminal domain RNA polymerase II polypeptide A small phosphatase 1 (Homo sapiens, UniProt Q9GZU7); experiment: CTDSP1 inhibitors, concentration-response, biochemical, absorbance readout, ultra-high-throughput screen actives (AID 540297); format: functional
T1 sequence (Q9GZU7 whole entry): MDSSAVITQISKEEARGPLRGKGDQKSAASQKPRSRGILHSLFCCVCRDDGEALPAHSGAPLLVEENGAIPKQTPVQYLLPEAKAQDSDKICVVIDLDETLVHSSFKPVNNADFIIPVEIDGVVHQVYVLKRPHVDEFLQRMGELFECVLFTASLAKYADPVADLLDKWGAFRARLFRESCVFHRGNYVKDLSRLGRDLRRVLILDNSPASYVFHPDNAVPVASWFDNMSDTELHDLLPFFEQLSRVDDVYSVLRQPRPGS

Streptokinase A = target: T2, Streptokinase A (Streptococcus pyogenes serotype M1, UniProt P10520); experiment: viability-normalized secreted streptokinase activity reduction – plasminogen activation absorbance, OD405, dose response (AID 1914); format: functional, Streptococcus pyogenes M1 GAS;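 note: secreted streptokinase activity via plasminogen activation per viability signal from cell pellet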
T2 sequence (P10520 whole entry): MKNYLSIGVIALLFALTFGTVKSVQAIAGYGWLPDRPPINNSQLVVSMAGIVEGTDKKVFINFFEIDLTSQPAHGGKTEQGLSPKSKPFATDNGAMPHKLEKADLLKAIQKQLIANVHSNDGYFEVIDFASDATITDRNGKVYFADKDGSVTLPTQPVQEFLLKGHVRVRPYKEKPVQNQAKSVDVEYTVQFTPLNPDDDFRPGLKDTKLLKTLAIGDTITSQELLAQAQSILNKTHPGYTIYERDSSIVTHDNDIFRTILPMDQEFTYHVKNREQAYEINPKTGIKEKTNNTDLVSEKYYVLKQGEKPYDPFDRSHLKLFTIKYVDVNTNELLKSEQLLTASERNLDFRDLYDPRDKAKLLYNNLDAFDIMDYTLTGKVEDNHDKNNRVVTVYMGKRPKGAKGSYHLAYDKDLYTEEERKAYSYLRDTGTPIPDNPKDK

[2] = system: Streptococcus sp. 'group A'; experiment: Streptococcus pyogenes SK(-)GAS viability under kanamycin – luminescence, BacTiterGlo, confirmation, counter-screen for streptokinase expression inhibitor project, dose response (AID 1900); format: functional, organism-based
H4 = experiment: Luminescence Cell-Based Dose Response HTS to Identify Activators of 5'UTR Stem-Loop Driven Prion Protein mRNA Translation in H4 Neuroglioblastoma Cells. [Related pubchem assays: 1829 (Project Summary), 1814 (Primary HTS)]; format: functional; conditions: Homo sapiens
[3] = Luminescence Cell-Based Dose Confirmation HTS to Identify Activators of 5'UTR Stem-Loop Driven Alpha-Synuclein mRNA Translation in H4 Neuroglioblastoma Cells. [Related pubchem assays: 1829 (Project Summary), 1814 (Primary HTS)]; format: functional
[4] = Luminescence Cell-Based Dose Response HTS to Identify Activators of Luciferase Translation or Activity in H4 […] Cells. [Related pubchem assays: 1829 (Project Summary), 1814 (Primary HTS)]; format: functional
[5] = target: T3, High affinity choline transporter 1 (Homo sapiens, UniProt Q9GZV3); experiment: human choline transporter blockers, potency – cell-based, 5-point CRC, membrane potential dye, dose response (AID 504840); format: functional
T3 sequence (Q9GZV3 whole entry): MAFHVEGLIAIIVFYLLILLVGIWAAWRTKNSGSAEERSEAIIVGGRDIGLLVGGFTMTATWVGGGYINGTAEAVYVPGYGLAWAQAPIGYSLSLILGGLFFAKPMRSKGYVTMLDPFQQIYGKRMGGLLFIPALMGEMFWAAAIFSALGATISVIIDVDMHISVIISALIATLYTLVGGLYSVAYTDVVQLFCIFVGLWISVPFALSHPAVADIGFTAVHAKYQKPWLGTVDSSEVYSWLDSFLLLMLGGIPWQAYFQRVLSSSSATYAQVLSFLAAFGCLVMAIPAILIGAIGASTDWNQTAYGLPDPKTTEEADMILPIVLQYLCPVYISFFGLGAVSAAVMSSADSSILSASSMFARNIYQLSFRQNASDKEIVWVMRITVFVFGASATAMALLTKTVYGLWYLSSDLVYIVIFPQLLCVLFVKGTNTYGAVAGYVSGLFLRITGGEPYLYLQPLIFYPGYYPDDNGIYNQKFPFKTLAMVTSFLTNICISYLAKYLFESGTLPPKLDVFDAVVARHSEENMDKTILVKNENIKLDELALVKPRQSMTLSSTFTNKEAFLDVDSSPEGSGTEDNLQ

Fatty acid synthase [6] = target: T4, Fatty acid synthase (Homo sapiens, UniProt P49327); experiment: inhibition of human FAS-TE enzyme activity – biochemical, endpoint fluorescence intensity, uHTS hits, dose response (AID 624327); format: functional;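 note: fluorescence from hydrolysis of an O-methyl fluorescein acyl ester substrate by the enzyme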
Fatty acid synthase [7] = target: T4, Fatty acid synthase; experiment: inhibition of human FAS-TE enzyme activity – biochemical, kinetic fluorescence intensity, dose response (AID 624326); format: functional;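 note: rate of fluorescence rise from hydrolysis of a fluorogenic O-methyl fluorescein ester substrate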
cells [8] = format: functional, cell-based
cells [9] = format: functional, cell-based; remark: listed apart in the source
cells [10] = format: functional
[11] = THP-1 cell cytotoxicity, dose response, cytotoxicity control for non-replicating M. tuberculosis project (AID 489025); format: functional
H9c2 = experiment: cells; format: functional, cell-based; conditions: Rattus norvegicus, H9c2, Myocardium;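 note: confirmatory concentration-response retest of ultra-high-throughput screening hits for modulation of myocardial damage; cell death induced by hydrogen peroxide oxidative stress; compound pretreatment for 60 min then peroxide exposure for 2 h; potency is for protecting the cells against peroxide damage rather than for killing them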
[12] = OVCAR8 cell viability loss – plate reader, dry powder samples, PAX8 project, dose response (AID 743197); format: functional, cell-based; conditions: OVCAR-8
Paired box protein Pax-8 = Paired box protein Pax-8 (Homo sapiens, UniProt Q06710); experiment: PAX8 transcriptional activity inhibition in RMG-I – RMG-I cells, luciferase, cherry-pick, dose response (AID 687027); format: functional, cell-based;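 note: luciferase reporter driven by Pax8 target thyroperoxidase promoter measured by SteadyGlo luminescence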
Chain of Paired box protein Pax-8 (Q06710 whole entry): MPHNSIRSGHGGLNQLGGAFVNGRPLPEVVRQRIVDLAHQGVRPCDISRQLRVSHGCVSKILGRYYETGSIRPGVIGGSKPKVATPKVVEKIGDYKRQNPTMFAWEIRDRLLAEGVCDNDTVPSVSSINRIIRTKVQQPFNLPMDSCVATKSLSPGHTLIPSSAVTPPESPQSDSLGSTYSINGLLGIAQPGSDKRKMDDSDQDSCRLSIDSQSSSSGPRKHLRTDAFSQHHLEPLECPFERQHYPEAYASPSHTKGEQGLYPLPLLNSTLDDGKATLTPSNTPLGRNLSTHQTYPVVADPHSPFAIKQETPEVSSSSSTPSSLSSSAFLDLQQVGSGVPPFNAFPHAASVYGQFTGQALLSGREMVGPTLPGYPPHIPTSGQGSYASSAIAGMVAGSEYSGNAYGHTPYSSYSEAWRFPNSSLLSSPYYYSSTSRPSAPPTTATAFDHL

T4 sequence (P49327 whole entry): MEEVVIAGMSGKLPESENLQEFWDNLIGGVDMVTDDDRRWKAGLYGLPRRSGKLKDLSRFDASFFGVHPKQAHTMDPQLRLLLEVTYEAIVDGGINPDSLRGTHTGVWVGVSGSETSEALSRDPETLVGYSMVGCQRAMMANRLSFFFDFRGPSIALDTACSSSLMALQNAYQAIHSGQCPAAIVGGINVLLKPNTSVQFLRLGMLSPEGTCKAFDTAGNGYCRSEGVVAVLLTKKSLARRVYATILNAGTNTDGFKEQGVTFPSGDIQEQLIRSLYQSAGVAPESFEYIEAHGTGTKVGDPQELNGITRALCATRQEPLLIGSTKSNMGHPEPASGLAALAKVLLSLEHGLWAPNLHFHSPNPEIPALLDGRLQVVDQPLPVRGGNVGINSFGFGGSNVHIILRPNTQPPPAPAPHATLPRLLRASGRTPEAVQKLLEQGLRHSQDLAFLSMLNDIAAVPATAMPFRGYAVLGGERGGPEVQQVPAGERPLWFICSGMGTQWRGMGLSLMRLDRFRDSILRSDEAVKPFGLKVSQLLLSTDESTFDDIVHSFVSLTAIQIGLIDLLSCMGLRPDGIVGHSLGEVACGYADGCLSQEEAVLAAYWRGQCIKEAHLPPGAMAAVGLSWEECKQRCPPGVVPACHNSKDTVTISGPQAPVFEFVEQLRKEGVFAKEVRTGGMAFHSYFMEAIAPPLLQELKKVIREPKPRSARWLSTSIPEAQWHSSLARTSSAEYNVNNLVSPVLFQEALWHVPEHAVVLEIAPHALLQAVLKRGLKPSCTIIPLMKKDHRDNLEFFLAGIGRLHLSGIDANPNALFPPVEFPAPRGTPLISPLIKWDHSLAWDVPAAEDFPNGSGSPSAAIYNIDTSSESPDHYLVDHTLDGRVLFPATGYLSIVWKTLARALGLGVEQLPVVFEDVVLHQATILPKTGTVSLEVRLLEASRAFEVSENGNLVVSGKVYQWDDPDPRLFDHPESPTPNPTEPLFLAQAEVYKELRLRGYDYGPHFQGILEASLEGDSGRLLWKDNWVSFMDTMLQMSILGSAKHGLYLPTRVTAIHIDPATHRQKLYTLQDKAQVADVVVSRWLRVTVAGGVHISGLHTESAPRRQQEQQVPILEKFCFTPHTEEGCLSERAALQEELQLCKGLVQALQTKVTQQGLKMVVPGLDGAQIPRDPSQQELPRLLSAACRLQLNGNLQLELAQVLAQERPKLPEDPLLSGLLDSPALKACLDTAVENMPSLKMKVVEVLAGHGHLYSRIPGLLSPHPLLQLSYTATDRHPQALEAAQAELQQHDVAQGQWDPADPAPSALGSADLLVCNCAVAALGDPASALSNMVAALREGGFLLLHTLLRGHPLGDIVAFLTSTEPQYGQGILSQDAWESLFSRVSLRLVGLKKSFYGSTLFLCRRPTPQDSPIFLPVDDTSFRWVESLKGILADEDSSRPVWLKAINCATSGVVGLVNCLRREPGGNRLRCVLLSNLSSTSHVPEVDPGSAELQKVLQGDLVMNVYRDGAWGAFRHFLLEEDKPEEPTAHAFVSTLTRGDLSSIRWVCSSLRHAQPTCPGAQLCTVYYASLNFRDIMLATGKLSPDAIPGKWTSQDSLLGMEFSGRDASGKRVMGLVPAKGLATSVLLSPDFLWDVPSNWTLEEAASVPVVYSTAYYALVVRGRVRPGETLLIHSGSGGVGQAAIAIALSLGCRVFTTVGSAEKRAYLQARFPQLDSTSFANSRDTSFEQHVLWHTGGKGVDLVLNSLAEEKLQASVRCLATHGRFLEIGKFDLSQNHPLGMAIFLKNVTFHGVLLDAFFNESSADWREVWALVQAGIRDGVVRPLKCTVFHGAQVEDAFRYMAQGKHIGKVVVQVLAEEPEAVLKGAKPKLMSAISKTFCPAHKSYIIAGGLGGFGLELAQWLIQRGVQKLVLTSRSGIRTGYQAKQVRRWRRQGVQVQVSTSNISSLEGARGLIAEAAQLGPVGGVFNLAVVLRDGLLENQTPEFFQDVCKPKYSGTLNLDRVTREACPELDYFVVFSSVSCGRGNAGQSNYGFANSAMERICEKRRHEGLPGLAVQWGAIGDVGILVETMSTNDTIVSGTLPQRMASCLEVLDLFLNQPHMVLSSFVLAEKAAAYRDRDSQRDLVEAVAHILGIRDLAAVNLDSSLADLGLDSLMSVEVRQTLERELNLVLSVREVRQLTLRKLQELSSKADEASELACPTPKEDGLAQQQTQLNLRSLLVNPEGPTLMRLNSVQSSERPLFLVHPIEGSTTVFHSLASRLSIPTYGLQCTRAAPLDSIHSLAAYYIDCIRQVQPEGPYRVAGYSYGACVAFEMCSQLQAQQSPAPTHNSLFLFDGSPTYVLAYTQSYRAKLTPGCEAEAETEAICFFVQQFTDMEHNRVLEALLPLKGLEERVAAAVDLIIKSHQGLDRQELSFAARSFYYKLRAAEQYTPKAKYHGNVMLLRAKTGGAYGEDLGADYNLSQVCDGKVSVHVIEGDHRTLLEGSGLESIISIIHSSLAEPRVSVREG

Which EC50 (Streptococcus) does the source give for `C/C(=N\NC(=O)c1cc(Br)ccc1O)c1cccc(NC(=O)c2ccccc2F)c1` here?
The EC50 was 74 µM (active).

And the IC50 [1]?
The IC50 was 2.94 µM (active).

And the EC50 (Streptokinase A)?
The EC50 was > 150 µM (not active).

And the EC50 [2]?
Its EC50 is 3.04 µM (active).

With `Clc1cccc(Cl)c1Cn1nnc(N2CCCC2)n1` as the molecule, how does the EC50 (H4) read?
The EC50 was 20.3 µM (active).

And the EC50 [3]?
Its EC50 is 12 µM (active).

What about the EC50 [4] of the same molecule?
Its EC50 is 13.8 µM (active).

Which IC50 [5] does the source give for `Nc1c(C(=O)OC2CCCCC2)c2nc3ccccc3nc2n1CC1CCCO1` (configuration not stated) here?
Its IC50 is 13.2 µM (active).

With `CC(/C=C1\SC(=S)N(NC(=O)c2ccncc2)C1=O)=C\c1ccccc1` as the molecule, how does the IC50 [5] read?
The IC50 was 14.5 µM (active).

Which IC50 [5] does the source give for `CSCC[C@@H](C(=O)NCCCCCCCCCCC(=O)N1CCN(C(=O)OC(C)(C)C)CC1)n1cc(CCO)nn1` here?
Its IC50 is 14.5 µM (active).

Which IC50 (Fatty acid synthase [6]) does the source give for `O=C(CSc1ccc([N+](=O)[O-])cc1)NCC1CCCCC1` here?
Its IC50 is 8.2 µM (active).

What about the IC50 (Fatty acid synthase [7]) of the same molecule?
Its IC50 is 11.9 µM (active).

With `Cc1c(CCC(=O)O)c(=O)oc2cc(OCc3ccccc3Br)ccc12` as the molecule, how does the IC50 [1] read?
The IC50 was 10.6 µM (active).

With `O/N=C1/C2C3CC4C5C3C1C5C1(OCCO1)C42` (configuration not stated) as the molecule, how does the EC50 (cells [8]) read?
Its EC50 is > 350 µM (not active).

What about the EC50 (cells [9]) of the same molecule?
The EC50 was > 350 µM (not active).

For `Cc1cc(C)c(C#N)c(SC[S+]([O-])Cc2ccc(Cl)cc2)n1` (configuration not stated), which IC50 (Fatty acid synthase [6]) is on record?
Its IC50 is 5.88 µM (active).

What about the IC50 (Fatty acid synthase [7]) of the same molecule?
Its IC50 is 5.54 µM (active).

With `O=C(CSc1nnc(COc2ccccc2)n1Cc1ccco1)NCc1ccco1` as the molecule, how does the IC50 [1] read?
Its IC50 is 7.21 µM (active).

With `CC1CCN(Cc2nc(-c3ccccc3)no2)CC1` as the molecule, how does the EC50 (H4) read?
Its EC50 is 25.8 µM (active).

What about the EC50 [3] of the same molecule?
The EC50 was 0.272 µM (active).

What about the EC50 [4] of the same molecule?
The EC50 was < 0.1 µM (active).

Which EC50 (cells [8]) does the source give for `COc1ccc(NC(=O)CCS(=O)(=O)c2ccc3c(c2)CCN3C(C)=O)cc1` here?
The EC50 was > 350 µM (not active).

And the EC50 (cells [9])?
The EC50 was > 350 µM (not active).

With `NC1=C(c2nc3ccccc3s2)C(=O)CN1Cc1ccccc1` as the molecule, how does the EC50 (H4) read?
The EC50 was > 120 µM (not active).

And the EC50 [3]?
Its EC50 is > 120 µM (not active).

And the EC50 [4]?
The EC50 was 92 µM (active).

Which results are given for `Cc1ccc(C(=O)N/N=C\c2ccc(-c3ccc(Cl)cc3)o2)cn1`?
IC50 (cells [10]): > 50 µM (active); CC50 [11]: 30 µM (active); IC50 (H9c2): > 79 µM (inactive)

With `CN1c2ccc(C3=CCCCC3)cc2[C@H]2[C@H](CCN2C(=O)NC2CCCCC2)[C@@H]1CO` as the molecule, how does the AC50 [12] read?
Its AC50 is > 70 µM (inactive).

What about the AC50 (Paired box protein Pax-8) of the same molecule?
Its AC50 is 12.3 µM (active).

With `N#Cc1c(/N=C/c2cc(Br)cs2)sc2c1CCC2` as the molecule, how does the EC50 (H4) read?
The EC50 was 11.2 µM (active).

What about the EC50 [3] of the same molecule?
The EC50 was > 120 µM (not active).

What about the EC50 [4] of the same molecule?
Its EC50 is 33.6 µM (active).

With `CC(NC(=O)c1cccc(OC2CCN(C(=O)C3CC3)CC2)c1)c1ccc(F)cc1` (configuration not stated) as the molecule, how does the IC50 [5] read?
The IC50 was 17.4 µM (active).

Which results are given for `O=C(Cn1cc([N+](=O)[O-])ccc1=O)NCC1COc2ccccc2O1` (configuration not stated)?
IC50 (Fatty acid synthase [6]): 10.1 µM (active); IC50 (Fatty acid synthase [7]): 11.5 µM (active)
